Laboratory results published in PMC11024795 (GeoHealth, 2024).
Where two headings read alike, the source gives them in different places.

Key:
[1] = tested on: BV2 cells; test: IC50 of OPPs-induced cytotoxicity in BV2 cells; type: cell-based; details: for IC50: read-out: IC50 values of OPPs in BV2 cells
[2] = tested on: BV2 cells; test: CCK-8 cell viability assay; type: cell-based; details: CCK-8, 125-1,000 μM, 24 hr; significant concentrations differ per compound
[3] = tested on: BV2 cells; test: LDH-based cytotoxicity assay; type: cell-based; details: 125-1,000 μM, 24 hr, significant concentrations differ per compound
[4] = tested on: NLRP3, ASC, Caspase-1, IL-1β, IL-18 mRNA in BV2 cells; test: RT-qPCR of NLRP3 inflammasome and inflammatory cytokine mRNA; type: cell-based; details: for expression of NLRP3, ASC, Caspase-1, IL-1β, IL-18 mRNA vs 0 μM OPPs / ASC mRNA expression, MCC950 intervention vs OPP alone / IL-1β mRNA expression, MCC950 intervention vs OPP alone / NLRP3 mRNA expression, MCC950 pre-treatment vs OPP alone: BV2 cells; for expression of NLRP3, ASC, Caspase-1, IL-1β, IL-18 mRNA vs 0 μM OPPs: 500 μM OPP, P < 0.0001; for ASC mRNA expression, MCC950 intervention vs OPP alone / IL-1β mRNA expression, MCC950 intervention vs OPP alone / NLRP3 mRNA expression, MCC950 pre-treatment vs OPP alone: OPP 500 μM
[5] = tested on: IL-1β and IL-18 in extracellular medium of BV2 cells; test: ELISA of IL-1β and IL-18 in culture supernatants; type: cell-based; details: P < 0.0001; for expression of IL-1β and IL-18 in the extracellular medium vs 0 μM OPPs: ELISA, BV2 cells, OPP 125, 250, 500 μM, 24 hr
[6] = molecular target: hNLRP3 LRR recombinant protein (Homo sapiens, UniProt Q96P20); test: Surface plasmon resonance; type: binding; details: for kon: read-out: association constant k a
[7] = SPR, Biacore 8K, CM5 chip, 25°C

Chain of hNLRP3 LRR recombinant protein (Q96P20 742-991 limits assumed): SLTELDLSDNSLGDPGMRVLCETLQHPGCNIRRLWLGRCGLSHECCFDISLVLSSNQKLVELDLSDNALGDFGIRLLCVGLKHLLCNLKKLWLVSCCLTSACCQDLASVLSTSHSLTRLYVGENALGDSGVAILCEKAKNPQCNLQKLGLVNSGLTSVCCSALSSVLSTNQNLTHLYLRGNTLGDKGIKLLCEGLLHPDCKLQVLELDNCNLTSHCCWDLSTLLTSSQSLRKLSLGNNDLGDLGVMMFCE

For `COP(=S)(OC)Oc1ccc(SC)c(C)c1` [fenthion], the IC50 ([1]; Mus musculus, BV-2, 24 h) was 2160 µM, the “cell viability of BV2 cells vs 0 μM OPPs” value [2] was “significantly decreased” and the “cytotoxicity (LDH) in BV2 cells vs 0 μM OPPs” value (“cytotoxicity … vs 0 μM OPPs” for short) [3] was “significantly increased”. The “Caspase-1 and IL-18 mRNA expressions, MCC950 intervention vs OPP alone” value [4] was “significantly decreased”, the “expression of NLRP3, ASC, Caspase-1, IL-1β, IL-18 mRNA vs 0 μM OPPs” value (from here on “expression of NLRP3, ASC … vs 0 μM OPPs”) [4] was “significantly increased” and the “ASC mRNA expression, MCC950 intervention vs OPP alone” value (“ASC mRNA expression … vs OPP alone” for short) ([4]; MCC950 10 μM) was “decreased”. For the same molecule, the “IL-1β mRNA expression, MCC950 intervention vs OPP alone” value (“IL-1β mRNA expression … vs OPP alone” for short) ([4]; MCC950 10 μM) was “decreased”, the “NLRP3 mRNA expression, MCC950 pre-treatment vs OPP alone” value (shortened to “NLRP3 mRNA expression … vs OPP alone”) ([4]; MCC950 10 μM) was “significant decrease” and the “expression of IL-1β and IL-18 in the extracellular medium vs 0 μM OPPs” value [5] was “significantly increased”. For the same molecule, the “affinity constant K D” value [6, 7] was “No obvious binding”.

For `CCOP(=O)(OCC)Oc1ccc([N+](=O)[O-])cc1` [paraoxon], the IC50 ([1]; BV2 cells, OPPs 24 hr) was 551 µM, the “cell viability of BV2 cells vs 0 μM OPPs” value [2] was “significantly decreased” and the “cytotoxicity … vs 0 μM OPPs” value [3] was “significantly increased”. For the same molecule, the “Caspase-1 and IL-18 mRNA expressions, MCC950 intervention vs OPP alone” value [4] was “significantly decreased”, the “expression of NLRP3, ASC … vs 0 μM OPPs” value [4] was “significantly increased” and the “ASC mRNA expression … vs OPP alone” value ([4]; MCC950 10 μM) was “decreased”. The “IL-1β mRNA expression … vs OPP alone” value ([4]; MCC950 10 μM) was “decreased”, the “NLRP3 mRNA expression … vs OPP alone” value ([4]; MCC950 10 μM) was “significant decrease” and the “expression of IL-1β and IL-18 in the extracellular medium vs 0 μM OPPs” value [5] was “significantly increased”. The “association constant k a” value [6, 7] was 14.2 M⁻¹ s⁻¹ and the “dissociation constant k d” value [6, 7] was 0.00461 s⁻¹.

`CC(C)(O)c1coc(S(=O)(=O)NC(=O)Nc2c3c(cc4c2CCC4)CCC3)c1` [MCC950, reference compound] was tested, and the “cytotoxicity induced by OPPs in BV2 cells” value ([1]; MCC950 10 μM intervention, from IC50 shift) was “markedly decrease”, the “activation of the NLRP3 inflammasome and associated inflammatory cytokine mRNA expression in OPPs-treated BV2 cells” value ([4]; MCC950 10 μM, OPPs 500 μM) was “reduced” and the “IL-1β and IL-18 expression in the extracellular medium of OPPs-treated BV2 cells” value ([5]; MCC950 10 μM vs OPPs treatment (125, 250, 500 μM)) was “significantly reduced”.

In the case of `COP(=O)(OC)C(O)C(Cl)(Cl)Cl` (stereo not shown) [dipterex], the IC50 ([1]; BV2 cells, OPPs 24 hr) is reported as 410 µM, the “cell viability of BV2 cells vs 0 μM OPPs” value [2] is reported as “significantly decreased” and the “cytotoxicity … vs 0 μM OPPs” value [3] is reported as “significantly increased”. The “Caspase-1 and IL-18 mRNA expressions, MCC950 intervention vs OPP alone” value [4] was “significantly decreased”, the “expression of NLRP3, ASC … vs 0 μM OPPs” value [4] was “significantly increased” and the “ASC mRNA expression … vs OPP alone” value ([4]; MCC950 10 μM) was “decreased”. For the same molecule, the “IL-1β mRNA expression … vs OPP alone” value ([4]; MCC950 10 μM) was “decreased”, the “NLRP3 mRNA expression … vs OPP alone” value ([4]; MCC950 10 μM) was “significant decrease” and the “expression of IL-1β and IL-18 in the extracellular medium vs 0 μM OPPs” value [5] was “significantly increased”. For the same molecule, the “affinity constant K D” value [6, 7] was “No obvious binding”.

With `COP(=O)(OC)OC(Br)C(Cl)(Cl)Br` (stereo not shown) [dibrom] the IC50 ([1]; BV2 cells, OPPs 24 hr) was 585 µM, the “Caspase-1 and IL-18 mRNA expressions, MCC950 intervention vs OPP alone” value [4] was “significantly decreased” and the “expression of NLRP3, ASC … vs 0 μM OPPs” value [4] was “significantly increased”. For the same molecule, the “ASC mRNA expression … vs OPP alone” value ([4]; MCC950 10 μM) was “decreased”, the “IL-1β mRNA expression … vs OPP alone” value ([4]; MCC950 10 μM) was “decreased” and the “NLRP3 mRNA expression … vs OPP alone” value ([4]; MCC950 10 μM) was “significant decrease”. For the same molecule, the “expression of IL-1β and IL-18 in the extracellular medium vs 0 μM OPPs” value [5] was “significantly increased”, the “association constant k a” value [6, 7] was 76.5 M⁻¹ s⁻¹ and the “dissociation constant k d” value [6, 7] was 0.206 s⁻¹. The Kd ([6]; read-out: affinity constant K D, SPR, Biacore 8K, CM5 chip, 25°C) was 2690 µM.

For `COP(=O)(OC)OC=C(Cl)Cl` [dichlorvos], the IC50 ([1]; Mus musculus, BV-2, 24 h) was 274 µM, the “cell viability of BV2 cells vs 0 μM OPPs” value [2] was “significantly decreased” and the “cytotoxicity … vs 0 μM OPPs” value [3] was “significantly increased”. The “Caspase-1 and IL-18 mRNA expressions, MCC950 intervention vs OPP alone” value [4] was “significantly decreased”, the “expression of NLRP3, ASC … vs 0 μM OPPs” value [4] was “significantly increased” and the “ASC mRNA expression … vs OPP alone” value ([4]; MCC950 10 μM) was “decreased”. For the same molecule, the “IL-1β mRNA expression … vs OPP alone” value ([4]; MCC950 10 μM) was “decreased”, the “NLRP3 mRNA expression … vs OPP alone” value ([4]; MCC950 10 μM) was “significant decrease” and the “expression of IL-1β and IL-18 in the extracellular medium vs 0 μM OPPs” value [5] was “significantly increased”. For the same molecule, the Kd [6] was 1460 µM, the “dissociation constant k d” value [6, 7] was 0.00489 s⁻¹ and the kon [6] was 3.35 M⁻¹ s⁻¹.

For `CNC(=O)CSP(=S)(OC)OC` [dimethoate], the “cell viability of BV2 cells vs 0 μM OPPs” value [2] was “significantly decreased”, the “cytotoxicity … vs 0 μM OPPs” value [3] was “significantly increased” and the “Caspase-1 and IL-18 mRNA expressions, MCC950 intervention vs OPP alone” value [4] was “significantly decreased”. For the same molecule, the “expression of NLRP3, ASC … vs 0 μM OPPs” value [4] was “significantly increased”, the “ASC mRNA expression … vs OPP alone” value ([4]; MCC950 10 μM) was “decreased” and the “IL-1β mRNA expression … vs OPP alone” value ([4]; MCC950 10 μM) was “decreased”. The “NLRP3 mRNA expression … vs OPP alone” value ([4]; MCC950 10 μM) was “significant decrease”, the “expression of IL-1β and IL-18 in the extracellular medium vs 0 μM OPPs” value [5] was “significantly increased” and the Kd [6] was 89.8 µM. The “dissociation constant k d” value [6, 7] was 0.00529 s⁻¹ and the kon [6] was 58.9 M⁻¹ s⁻¹.
